The text below walks through data of patent US6821442B1, “Method and apparatus for control of aquatic vertebrate and invertebrate invasive species” (priority 2002, dated 2004).

One data set deals with Asian clams. The note with it: cited from earlier work.
For data set [1], the system named is zebra mussels. Particulars: 25° C., cited from earlier work.
Data set [2] deals with Asian clam (Corbicula fluminea). The data set is described as follows: LT50 of Asian clam exposed to supersaturated gas, standard laboratory methods (APHA 1995). It is filed as in vivo. The source says:
Gas supersaturation (ΔP>0) with CO2, air or combustion off-gas is established and maintained for a time period shown to cause a selected mortality rate within the population of the target species. We have established LT50 values (LT50 is defined as the time to kill 50 per cent of a targeted species) for the Asian clam (Corbicula fluminea) exposed to elevated concentrations of carbon dioxide and a simulated combustion gas mixture ([…]; N2=85.7%; CO2=13.6%; SO2=0.284%). The LT50 values were established using standard laboratory methods (APHA 1995). With carbon dioxide exposure, LT50 was described by the model (R^2=0.86):
LT50 values decreased from a high of 270 min at 260 mm Hg PCO2 to a low of 90 min at 2070 mm Hg gage pressure. This later value represents a 27 fold decrease in LT50 below that established by McMahon et al (1995) at a PCO2 of 760 mm Hg (absolute pressure). Combustion gas requires longer exposure periods given a lower XCO2. The LT50 at a operating pressure of 2070 mm Hg is about 350 min. […] Lower levels of LT50 are anticipated for fish and other aquatic exotics of concern.

Data set [3] has as its system zebra mussels. Particulars: cited from earlier work.

The structures appear in SMILES notation. In brackets after ≈: the same amount, converted by molar mass. Where two headings read alike, the source gives them in different places.

A word on the LC50: it is the concentration lethal to half of the exposed cells or organisms. Take `O=C=O` [carbon dioxide]: in the data set on Asian clams, the concentration causing toxicity is 500 mg/L. Besides, the “concentration inducing a narcotizing effect” value with Asian clams was 100 mg/L. Besides, the LT50 is given as 78 h in the data set with zebra mussels [1] (PCO2 75 torr, zebra mussels); 270 min in data set [2] (260 mm Hg PCO2, Asian clam); 90 min in data set [2] (2070 mm Hg gage pressure, Asian clam). The mortality entry with zebra mussels [1] (PCO2 75 torr, zebra mussels) is “complete mortality”. The “effect on byssal threads” value in the data set with zebra mussels [1] (PCO2 of 38 torr) is “detachment of byssal threads and inhibition of byssal thread formation”. In addition, the “fold decrease in LT50 below that of McMahon et al at PCO2 760 mm Hg (absolute pressure)” value in data set [2] (2070 mm Hg gage pressure) amounted to 27 fold. Moreover, the LC50 in the data set with zebra mussels [3] (48 h, 18° C.) is 196 µg/mL (≈ 4.45 mM); with zebra mussels [3] (48 h, 22° C.), 290 µg/mL (≈ 6.59 mM); with zebra mussels [3] (96 h, 18° C.), 74 µg/mL (≈ 1.68 mM); in the data set on zebra mussels [3] (96 h, 22° C.), 81 µg/mL (≈ 1.84 mM). The “exposure period after which sub-lethal narcotizing effects (gaping response) were induced” value in the data set with zebra mussels [3] was 4 h.
